In US20240400997A1, “TRANSFORMED HUMAN HEPATIC STELLATE CELL LINE AND USE THEREOF” (KOREA RESEARCH INSTITUTE OF BIOSCIENCE AND BIOTECHNOLOGY, priority 2020, published 2024):
Where two headings read alike, the source gives them in different places.

Experiments:
[1] = tested on: CYP3A4 enzyme; assay: Liver injury simulation in 3D co-cultures with HepaRG: CYP3A4 enzyme activity and albumin production; conditions: hydrogels and NP-hydrogels, K-HSC or LX-2 with HepaRG 1:1
[2] = tested on: TGF-β1; assay: K-HSC/HepaRG 1:1 in 4% hydrogel with TGF-β1 and inhibitor A, 18-day culture, liver fibrosis marker expression; type: cell-based, human; conditions: K-HSC/HepaRG 1:1, 4% hydrogel, 18 days
Method: Meanwhile, the K-HSC was encapsulated with the hepatic cell line HepaRG at a ratio of 1:1 in a 4% hydrogel and then 3D cultured, and the groups were divided into experimental groups to which TGF-β1, which is a fibrosis-inducing material, and inhibitor A thereof were added individually or simultaneously, and a control group to which TGF-β1 and inhibitor A were not added. The groups were cultured for 18 days, and then the cell network formation and expression differences of fibrosis markers in the liver analogs were confirmed.

[3] = tested on: CYP3A4 enzyme
[4] = tested on: primary human hepatic cells; assay: K-HSC and primary human hepatic cells 1:1 in hydrogel or nanoparticle-hydrogel, TGF-β1 cycles, albumin; type: cell-based; conditions: 10 ng/mL TGF-β1, 3 cycles, 24-day culture, K-HSC with primary human hepatic cells
Method: The K-HSC prepared in Example 1 was encapsulated with primary human hepatic cells (PHHs, Corning, USA) at a ratio of 1:1 in 4.5% polyethylene glycol/hyaluronic acid/RGD hydrogel using photopolymerization as described in Example 4. The cells frozen with nitrogen were thawed using recovery media (ThermoFisher, USA) and centrifuged, and then the number of cells were measured, and the cells were encapsulated with the K-HSC in a hydrogel, and then cultured for one day in a primary human hepatocyte plating medium (ThermoFisher, USA) containing 10% bovine serum. The medium was converted to a dedicated serum-free medium for primary human hepatic cells (Corning, USA), after 5 days, TGF-β1 inducing fibrosis, was added for 24 hours at a concentration of 10 ng/mL, and then converted back to a serum-free medium to which the TGF-β1 was not added in the following day, 3 cycles were performed, and the appearance change of the hydrogel was observed after the 24-day culture, and albumin production ability and expression levels of fibrosis markers were measured by RT-PCR.

Compound	CYP3A4 enzyme activity and function [1]	reactivity to TGF-β1 in expression of liver fibrosis markers [2]	CYP3A4 enzyme activity and function [3]	albumin degrading ability in the presence of TGF-β1 compared to control groups [4]
CN(Cc1cnc2nc(N)nc(N)c2n1)c1ccc(C(=O)N[C@@H](CCC(=O)O)C(=O)O)cc1 [MTX, methotrexate]	CYP3A4 enzyme activity and functional decrease were simulated			
transforming growth factor beta 1 [TGF-β1]		confirmed in all markers except smooth muscle actin alpha (α-SMA) and lysyl oxidase (LOX)	CYP3A4 enzyme activity and functional decrease were simulated	deterioration
